Values after ≈ are worked out from the molar mass of the structure shown.
What was measured:
[1] = test system: Mycobacterium tuberculosis; assay: Antimycobacterial activity against Mycobacterium tuberculosis H37Rv under starvation condition assessed as inhibition of bacterial growth at 100 ug/ml measured after 3 days relative to control; format: functional; details: 72 h, time 3 day
[2] = Cytotoxicity against African green monkey Vero cells assessed as cell viability at 100 ug/ml measured after 24 hrs relative to control; format: cell-based; details: chlorocebus sabaeus, at 100 µg/mL, read-out: Activity
[3] = test system: Mycobacterium tuberculosis; assay: Antimycobacterial activity against Mycobacterium tuberculosis H37Rv assessed as inhibition of bacterial growth at 100 ug/ml measured after 9 days relative to control; format: functional; details: 216 h, time 9 day
[4] = test system: Mycobacterium tuberculosis; assay: Antimycobacterial activity against Mycobacterium tuberculosis H37Rv assessed as inhibition of bacterial growth at 100 ug/ml measured after 3 days relative to control; format: functional; details: 72 h, time 3 day
[5] = test system: Mycobacterium tuberculosis; assay: Antimycobacterial activity against Mycobacterium tuberculosis H37Rv assessed as inhibition of bacterial growth at 100 ug/ml measured after 24 hrs relative to control; format: functional
[6] = test system: Mycobacterium tuberculosis; assay: Antimycobacterial activity against Mycobacterium tuberculosis H37Rv under starvation condition assessed as inhibition of bacterial growth at 6.25 ug/ml measured after 3 days relative to control; format: functional; details: 72 h, time 3 day
[7] = test system: Mycobacterium tuberculosis; assay: Antimycobacterial activity against Mycobacterium tuberculosis H37Rv under starvation condition assessed as inhibition of bacterial growth at 6.25 ug/ml measured after 1 day relative to control; format: functional; details: 24 h
[8] = Selectivity index, ratio of IC50 for African green monkey Vero cells to MIC for antimycobacterial activity against Mycobacterium tuberculosis FURG-2; format: toxicity; details: read-out: Selectivity Index
[9] = test system: Mycobacterium tuberculosis; assay: Antimycobacterial activity against Mycobacterium tuberculosis H37Rv under starvation condition assessed as inhibition of bacterial growth at 25 ug/ml measured after 1 day relative to control; format: functional; details: 24 h
[10] = test system: Mycobacterium tuberculosis; assay: Antimycobacterial activity against Mycobacterium tuberculosis H37Rv under starvation condition assessed as inhibition of bacterial growth at 25 ug/ml measured after 3 days relative to control; format: functional; details: 72 h, time 3 day
[11] = test system: Mycobacterium tuberculosis; assay: Antimycobacterial activity against Mycobacterium tuberculosis H37Rv under starvation condition assessed as inhibition of bacterial growth at 100 ug/ml measured after 9 days relative to control; format: functional; details: 216 h, time 9 day
[12] = test system: Mycobacterium tuberculosis; assay: Antimycobacterial activity against Mycobacterium tuberculosis H37Rv assessed as inhibition of bacterial growth measured by Resazurin microtitre assay; format: functional
[13] = test system: Mycobacterium tuberculosis; assay: Antimycobacterial activity against Mycobacterium tuberculosis H37Rv under starvation condition assessed as inhibition of bacterial growth at 100 ug/ml measured after 1 day relative to control; format: functional; details: 24 h
[14] = test system: Mycobacterium tuberculosis; assay: Antimycobacterial activity against Mycobacterium tuberculosis H37Rv under starvation condition assessed as inhibition of bacterial growth at 25 ug/ml measured after 9 days relative to control; format: functional; details: 216 h, time 9 day
[15] = test system: Mycobacterium tuberculosis; assay: Antimycobacterial activity against Mycobacterium tuberculosis H37Rv under starvation condition assessed as inhibition of bacterial growth at 6.25 ug/ml measured after 9 days relative to control; format: functional; details: 216 h, time 9 day
[16] = test system: Vero; assay: Cytotoxicity against African green monkey Vero cells assessed as cell viability measured after 24 hrs; format: cell-based; details: Chlorocebus sabaeus

Structure (SMILES): O=C(C1=CN(CCc2ccccc2)C(NCCc2ccccc2)CC1)C(F)(F)F (configuration not stated)
- inhibition at 100 µg/mL [1]: 99.9%
- viability at 24 h, 100 ug/ml [2]: 80%
- inhibition at 100 µg/mL [3]: 100%
- inhibition at 100 µg/mL [4]: 99.9%
- inhibition at 100 µg/mL [5]: 89.5%
- inhibition at 6.25 µg/mL [6]: 0%
- inhibition at 6.25 µg/mL [7]: 0%
- selectivity ratio [8]: > 10
- inhibition at 25 µg/mL [9]: 0%
- inhibition at 25 µg/mL [10]: 99.5%
- inhibition at 100 µg/mL [11]: 100%
- MIC [12]: 25 µg/mL (≈ 62.1 µM)
- inhibition at 100 µg/mL [13]: 97.5%
- inhibition at 25 µg/mL [14]: 100%
- inhibition at 6.25 µg/mL [15]: 100%
- IC50 [16]: 140 µg/mL (≈ 347 µM)

Structure (SMILES): CO[C@H]1/C=C/O[C@@]2(C)Oc3c(C)c(O)c4c(O)c(c(/C=N/N5CCN(C)CC5)c(O)c4c3C2=O)NC(=O)/C(C)=C\C=C\[C@H](C)[C@H](O)[C@@H](C)[C@@H](O)[C@@H](C)[C@H](OC(C)=O)[C@@H]1C [RIFAMPIN]
- MIC [12]: 256 µg/mL (≈ 311 µM)
